# Measurements published in US10058525B2, “Application of chlorogenic acid in preparing medicines for treating lupus erythematosus” (SICHUAN JIUZHANG BIOLOGICAL SCIENCE AND TECHNOLOGY CO., LTD., priority 2015, dated 2018).
# Entries after “also recorded” stand apart in the source; their conditions may differ.
# Legend:
# [1] = tested on: lupus erythematosus model mice (kidney, liver); test: Triple staining (silver staining) of kidney and liver sections under light microscope, lupus model mice; format: in vivo, BALB/c mice; conditions: positive controls (artesunate, prednisone); for basilar membrane of renal glomerulus and tubule, pathological section: 21 days; for glomerular basement membrane thickness compared with the normal mice (FIG. 9, FIG. 10): 28 days, ×50
# Procedure: (§1) The back of mice was shaved and acutely exposed to Ultraviolet of 2 h/d*3 d, with a distance of 30 cm. After exposure to UV, 2.5 mg/kg of LPS was administrated once by ip, and after 24 h, the model was successfully established; the mice in the normal control group received normal saline via ip. 24 h after injection of LPS (ip), medicines were given to the model mice by intragastric administration. Chlorogenic acid test groups received high, middle, and low doses of medicines, by intragastric administration at a respective dosage of 10 mg/kg*d, 20 mg/kg*d, and 40 mg/kg*d. The positive control group A received 2 mg/kg*d of artesunate by stomach perfusion, while the positive control group B received 1 mg/kg*d of prednisone by stomach perfusion. Mice in the model and normal control group all received 0.4 ml/mouse normal saline by gavage. After 15 days of administration, animals in each group were taken blood by separating eyeballs on days 14, 21, 28, and after cultured in water bath at 37° C. for 1 h, the blood sample was centrifugated at 2000 r/min for 5 min, to draw serum for use. On day 21, after blood collection, animals were sacrificed by dislocation, followed by collection of liver and kidney, and they were placed in fixative solutions of electron microscope and light microscrope, respectively.
# […] The thickness of slice is 3 μm, and at beginning of staining, wax was routinely deprived to water. After oxidation with 0.5% periodic acid, the slice was macerated in hexamine silver fluid for about 2 h (constant temperature 58° C.), washed with distilled water, dyed with hematoxylin for 1 min. After washing with water, the slice was dyed by dropping the ponceau staining solution for 5 min, differentiated with 70% ethanol, dehydrated with gradient ethanol, cleared with xylene, and sealed with neutral gum.
# ANA [2] = test: Serologic detection of ANA by immunofluorescence on HEp-2 cell sheets, serum of UV + LPS lupus model mice; format: in vivo, BALB/c mice; conditions: artesunate, 28 days, ×200
# Procedure: The back of mice was shaved and acutely exposed to Ultraviolet of 2 h/d*3 d, with a distance of 30 cm. After exposure to UV, 2.5 mg/kg of LPS was administrated once by ip, and after 24 h, the model was successfully established; the mice in the normal control group received normal saline via ip. 24 h after injection of LPS (ip), medicines were given to the model mice by intragastric administration. Chlorogenic acid test groups received high, middle, and low doses of medicines, by intragastric administration at a respective dosage of 10 mg/kg*d, 20 mg/kg*d, and 40 mg/kg*d. The positive control group A received 2 mg/kg*d of artesunate by stomach perfusion, while the positive control group B received 1 mg/kg*d of prednisone by stomach perfusion. Mice in the model and normal control group all received 0.4 ml/mouse normal saline by gavage. After 15 days of administration, animals in each group were taken blood by separating eyeballs on days 14, 21, 28, and after cultured in water bath at 37° C. for 1 h, the blood sample was centrifugated at 2000 r/min for 5 min, to draw serum for use. On day 21, after blood collection, animals were sacrificed by dislocation, followed by collection of liver and kidney, and they were placed in fixative solutions of electron microscope and light microscrope, respectively. Serum of mice was diluted at 1:100 with special buffer solution of Shenzhen Hengjia, and then 200 μL of diluted serum was respectively added to the reactive tank with corresponding number, cultured in the incubator at 37° C. for 30 min, and washed with the buffer solution four times, 2 min for each time; 200 μL of diluted biotin goat anti-mouse IgG (1:100) was added, cultured in the incubator at 37° C. for 30 min, and then washed with the buffer solution four times, 2 min for each time; 100 μL of diluted HRP-avidin (1:100) was added, cultured in the incubator at 37° C. for 30 min, and then washed as mentioned-above; reactive solutions A and B were added till appearance of positive bands, then washed with the buffer solution. Compared with the standard bands of ENA polypeptide antibody spectrum in the same kit, if the positive bands appeared at 28/29,13.5 ku polypeptide; 15,16.5,38 kupolypeptide; 52 kupolypeptide and 47/48,45 kupolypeptide, that can be determined as anti-Sm, anti-Rib, anti-ssA, and anti-ssB positive antibody. Serum was diluted with PBS at 1:40, then 20-30 μL of diluted serum was dropped into the scrobiculus of HEp-2 cell sheets, each cell sheet for each group. In the process of dropping serum, it should be noted that the surface of cell sheet can not be touched. After addition of serum, cell sheet was placed in wet box and kept for 30 min at room temperature (25° C.). […]
# ANA [3] = test: as above; format: in vivo, BALB/c mice; parameters: key: (+): positive; (−): negative; (++++): intenseintensity; (+++): stronger fluorescent intensity; conditions: day 14; positive controls (artesunate 2 mg/kg*d, prednisone 1 mg/kg*d) by stomach perfusion
# Procedure: (§2) The back of mice was shaved and acutely exposed to Ultraviolet of 2 h/d*3 d, with a distance of 30 cm. After exposure to UV, 2.5 mg/kg of LPS was administrated once by ip, and after 24 h, the model was successfully established; the mice in the normal control group received normal saline via ip. 24 h after injection of LPS (ip), medicines were given to the model mice by intragastric administration. Chlorogenic acid test groups received high, middle, and low doses of medicines, by intragastric administration at a respective dosage of 10 mg/kg*d, 20 mg/kg*d, and 40 mg/kg*d. The positive control group A received 2 mg/kg*d of artesunate by stomach perfusion, while the positive control group B received 1 mg/kg*d of prednisone by stomach perfusion. Mice in the model and normal control group all received 0.4 ml/mouse normal saline by gavage. After 15 days of administration, animals in each group were taken blood by separating eyeballs on days 14, 21, 28, and after cultured in water bath at 37° C. for 1 h, the blood sample was centrifugated at 2000 r/min for 5 min, to draw serum for use. On day 21, after blood collection, animals were sacrificed by dislocation, followed by collection of liver and kidney, and they were placed in fixative solutions of electron microscope and light microscrope, respectively. Serum of mice was diluted at 1:100 with special buffer solution of Shenzhen Hengjia, and then 200 μL of diluted serum was respectively added to the reactive tank with corresponding number, cultured in the incubator at 37° C. for 30 min, and washed with the buffer solution four times, 2 min for each time; 200 μL of diluted biotin goat anti-mouse IgG (1:100) was added, cultured in the incubator at 37° C. for 30 min, and then washed with the buffer solution four times, 2 min for each time; 100 μL of diluted HRP-avidin (1:100) was added, cultured in the incubator at 37° C. for 30 min, and then washed as mentioned-above; reactive solutions A and B were added till appearance of positive bands, then washed with the buffer solution. Compared with the standard bands of ENA polypeptide antibody spectrum in the same kit, if the positive bands appeared at 28/29,13.5 ku polypeptide; 15,16.5,38 kupolypeptide; 52 kupolypeptide and 47/48,45 kupolypeptide, that can be determined as anti-Sm, anti-Rib, anti-ssA, and anti-ssB positive antibody. Serum was diluted with PBS at 1:40, then 20-30 μL of diluted serum was dropped into the scrobiculus of HEp-2 cell sheets, each cell sheet for each group. In the process of dropping serum, it should be noted that the surface of cell sheet can not be touched. After addition of serum, cell sheet was placed in wet box and kept for 30 min at room temperature (25° C.). After 30 min, the cell sheet was taken out, and serum was carefully washed out with PBS, then carefully washed twice with PBS, 5 min for each time; after washing, the remained PBS was removed by special absorbent paper of […] company (In this process, it should be noted that becoming dry of cell substrates will affect the results). 20-30 μL of diluted (PBS, 1:100) FITC goat anti-mouse IgG was added by dropping, and then incubated in wet box at room temperature for 30 min. After washing with PBS, steps were same to above. The remained PBS was removed by absorbent paper, and 1-2 drops of fluorescent mounting media were added to the cell sheet. The cover glass was mounted, observed under Olympus BH-2 universal microscope, and then photographed.
# ANA [4] = test: as above; format: in vivo, BALB/c mice; parameters: key: (+): positive; (−): negative; (++++): intense fluorescence; (+++): stronger fluorescence; (++): weeker fluorescence; conditions: positive controls (artesunate 2 mg/kg*d, prednisone 1 mg/kg*d) by stomach perfusion
# Procedure: as §2
# [5] = tested on: lupus erythematosus model mice (renal glomerular capsule wall epithelial cells); test: Electron microscope observation of kidney samples, lupus model mice; format: in vivo, BALB/c mice; conditions: positive controls (artesunate, prednisone), 21 days; compared with the model group
# Procedure: as §1, with “respectively. On day 21, the sample used for observation under electron microscope was fixed in mixed stationary solution of 2% paraformaldehyde+0.25% glutaral for 4 h, rinsed with TBS, treated with 1% osmic acid, followed by fixation for 1 h, rinsed with buffer solution, dehydrated with acetone, dyed with uranyl acetate for 2 h, macerated in Epon812 and embedded, and cut into slices with LEICA ultramicrotome. The slices were stained with lead solution, and the sample was observed under transmission electron microscope when it was dry.” for “respectively.”
# [6] = tested on: ENA polypeptide antibodies (anti-Sm, anti-Rib, anti-ssA, anti-ssB); test: Serologic detection of ENA polypeptide antibodies by immunoblotting in serum of UV + LPS lupus model mice; format: in vivo, BALB/c mice; parameters: key to Anti-Rib: (+): positive; (−): negative; key to Anti-Sm / Anti-ssA / Anti-ssB: (+): positive; (−): negative; (++++): intenseintensity; (+++): stronger fluorescent intensity; conditions: for Anti-Rib / Anti-Sm / Anti-ssA / Anti-ssB: positive controls (artesunate 2 mg/kg*d, prednisone 1 mg/kg*d) by stomach perfusion; for ENA polypeptide antibodies found positive (FIG. 1): treated 14 days, positive controls (artesunate, prednisone)
# Procedure: as §2
# lupus erythematosus = test: Screening medicines for treatment of lupus erythematosus; conditions: screening of extracts and potency constituents; no method given
smiles,measurement,setting,value
"C[C@H]1[C@H](OC(=O)CCC(=O)O)O[C@@H]2O[C@@]3(C)CC[C@H]4[C@H](C)CC[C@@H]1[C@@]24OO3 [Artesunate, artesunate, reference compound]","basilar membrane of renal glomerulus and tubule, pathological section",[1],increased thickness compared with the normal mice
same,"glomerular basement membrane thickness compared with the normal mice (FIG. 9, FIG. 10)",[1],increased thickness
same,fluorescence intensity of ANA (FIG. 5),ANA [2],doesn't decrease
same,ANA,ANA [3],(++++)
same,ANA,ANA [4]; day 21,(+++)
same,ANA,ANA [4]; day 28,(+++)
same,proliferative degree of renal glomerular capsule wall epithelial cells,[5],slightly relieves; also recorded: somewhat relieved
same,Anti-Rib,[6]; day 14,(+)
same,Anti-Sm,[6]; day 14,(+)
same,Anti-ssA,[6]; day 14,(+)
same,Anti-ssB,[6]; day 14,(+)
same,Anti-Rib,[6]; day 21,(+)
same,Anti-Sm,[6]; day 21,(+)
same,Anti-ssA,[6]; day 21,(+)
same,Anti-ssB,[6]; day 21,(+)
same,Anti-Rib,[6]; day 28,(−)
same,Anti-Sm,[6]; day 28,(+)
same,Anti-ssA,[6]; day 28,(+)
same,Anti-ssB,[6]; day 28,(+)
same,ENA polypeptide antibodies found positive (FIG. 1),[6],"anti-Sm, anti-ssA and anti-ssB bodies are positive"
"C[C@]12C=CC(=O)C=C1CC[C@@H]1[C@@H]2C(=O)C[C@@]2(C)[C@H]1CC[C@]2(O)C(=O)CO [Prednisone, prednisone, reference compound]","basilar membrane of renal glomerulus and tubule, pathological section",[1],increased thickness compared with the normal mice
same,"glomerular basement membrane thickness compared with the normal mice (FIG. 9, FIG. 10)",[1],obviously increased thickness
same,ANA,ANA [3],(++++)
same,ANA,ANA [4]; day 21,(+++)
same,ANA,ANA [4]; day 28,(+++)
same,proliferative degree of renal glomerular capsule wall epithelial cells,[5],slightly relieves; also recorded: somewhat relieved
same,Anti-Rib,[6]; day 14,(+)
same,Anti-Sm,[6]; day 14,(+)
same,Anti-ssA,[6]; day 14,(+)
same,Anti-ssB,[6]; day 14,(+)
same,Anti-Rib,[6]; day 21,(+)
same,Anti-Sm,[6]; day 21,(+)
same,Anti-ssA,[6]; day 21,(+)
same,Anti-ssB,[6]; day 21,(+)
same,Anti-Rib,[6]; day 28,(+)
same,Anti-Sm,[6]; day 28,(+)
same,Anti-ssA,[6]; day 28,(+)
same,Anti-ssB,[6]; day 28,(+)
same,ENA polypeptide antibodies found positive (FIG. 1),[6],"anti-Sm, anti-ssA and anti-ssB bodies are positive"
OCC1=C[C@@H](O)[C@@H]2C=CO[C@@H](O[C@@H]3O[C@H](CO)[C@@H](O)[C@H](O)[C@H]3O)[C@H]12 [aucubin],inhibition on lupus erythematosus,lupus erythematosus,relatively obvious inhibition
O=C(O)C1=CO[C@@H](O[C@@H]2O[C@H](CO)[C@@H](O)[C@H](O)[C@H]2O)[C@@H]2C(CO)=CC[C@H]12 [geniposidic acid],inhibition on lupus erythematosus,lupus erythematosus,relatively obvious inhibition
